Source: patent US10905736B2, “Ezetimibe-associated ApoA-I mimetic peptides showing enhanced synergism” (The Regents of the University of California, priority 2016, dated 2021)
“Also recorded” adds a separate entry of the source.

What was measured:
LDLR null mice [1] = assay: Plasma lipid levels (total cholesterol, triglycerides, HDL-cholesterol) in LDLR null mice fed Western diet for two weeks; type: in vivo, mouse
Procedure: Res. Per. 3: e00154; Chattopadhyay et al. (2016) J. Lipid Res. 57: 832-847; PCT Pub. Nos: WO 2013/148214 (PCT/US2013/031037), WO 2015/175968 (PCT/US2015/031134)) (Tg6F), or the mice were fed WD with Ezetimibe added to give a daily dose of 10 mg/kg body weight/day (WD+Ezetimibe), or the mice were fed WD with Tg6F added at 0.06% by weight plus Ezetimibe (each added separately to the diet) to give a daily dose of Ezetimibe of 10 mg/kg body weight; the Tg6F and Ezetimibe were mixed into WD as described previously (Chattopadhyay et al. (2016) J. Lipid. Res. 57: 832-847) (Combined Formulation), or the mice were fed WD to which was added ezetimibe-associated transgenic 6F peptide (Ez-tg6F) at 0.06% Tg6F by weight containing sufficient Ezetimibe to give a daily dose of 10 mg/kg body weight/day that was prepared as described herein. Specifically, the ezetimibe-associated Tg6F peptide (Ez-Tg6F) was made by adding the ezetimibe directly to a solution of ethyl acetate 5% acetic acid that had been incubated overnight at room temperature with freeze-dried tomato powder obtained from transgenic tomatoes expressing the 6F peptide, and which had been removed to a separate vessel as described previously (see, e.g., Chattopadhyay et al. (2015) Pharma. Res. Per. 3: e00154; Chattopadhyay et al. (2016) J. Lipid. Res. 57: 832-847) prior to addition of the ezetimibe. After the addition of the ezetimibe, the solution was incubated at room temperature with gentle mixing for two hours prior to processing and addition of the resulting freeze-dried powder to WD as previously described (Chattopadhyay et al. (2016) J. Lipid. Res. 57: 832-847). After feeding the diets for two weeks, the mice were bled and total plasma cholesterol levels were determined as described (Id.). NS=Not Significant.
LDLR-null mice originally purchased from Jackson Laboratories on a C57BL/6J background were obtained from the breeding colony of the Department of Laboratory and Animal Medicine at the David Geffen School of Medicine at UCLA. The gender and age of the mice are stated in the legend to each figure. The mice were maintained on standard mouse chow (Ralston Purina) before being switched to a Western diet WD (Teklad, Harlan, catalog #TD88137).
(§1) In experiments in which Tg6F or EV or Ezetimibe were administered as single agents, the EV or Tg6F concentrate was added to WD at 0.06% by weight or Ezetimibe was added to WD to give a final dose of 10 mg/kg body weight/day. The EV or Tg6F concentrate or Ezetimibe was mixed into the diets as described (Chattopadhyay et al. (2015) Pharma. Res. Per. 3: e00154). […]

LDLR null mice [2] = assay: Plasma lysophosphatidylcholine (LysoPC) levels in LDLR null mice fed Western diet for two weeks; type: in vivo, mouse; details: female LDLR null mice age 4-7 months, WD two weeks, Tg6F 0.06% by weight, Ezetimibe 10 mg/kg/day
Procedure: After feeding the diets for two weeks the mice were bled and plasma lipid levels, plasma levels of lysophosphatidylcholine (LysoPC), and plasma levels of Serum Amyloid A (SAA) were determined as described in Example 3 Methods. Panel A) Plasma total cholesterol levels. Panel B) The decrease in plasma cholesterol compared to WD for each treatment. Panel C) Plasma triglyceride levels. Panel D) The decrease in plasma triglycerides compared to WD for each treatment. Panel E) Plasma HDL-Cholesterol levels. Panel F) The Increase in plasma HDL-Cholesterol compared to WD for each treatment. Panel G) Plasma LysoPC 18:0 levels. Panel H) The decrease in plasma LysoPC 18:0 levels compared to WD for each treatment. Panel I) Plasma LysoPC 18:1 levels. Panel J) The decrease in plasma LysoPC 18:1 levels compared to WD for each treatment. Panel K) Plasma LysoPC 20:4 levels. Panel L) The decrease in plasma LysoPC 20:4 levels compared to WD for each treatment. Panel M) Plasma SAA levels. Panel N) The decrease in plasma SAA levels compared to WD for each treatment. The data shown are Mean±SEM. NS=Not significant.
as §1, with “e00154). In experiments in which the EV or Tg6F concentrates and Ezetimibe were both added to WD, each was added separately to WD at the same dose as used for the single agents, and each was mixed into the diet as described (Id.).” for “e00154).”
Plasma lipids, and serum amyloid A (SAA) levels were determined and LC-MS/MS was performed as described (Navab et al. (2012) J. Lipid Res. 53: 437-446; Chattopadhyay et al. (2016) J. Lipid Res. 57: 832-847; Chattopadhyay et al. (2015) Pharma. Res. Per. 3: e00154). […]

cholesterol-fed monkeys = details: cited from earlier work

Question: With `O=C1[C@H](CC[C@H](O)c2ccc(F)cc2)[C@@H](c2ccc(O)cc2)N1c1ccc(F)cc1` [Ezetimibe, (3R,4S)-1-(4-fluorophenyl)-3-[(3S)-3-(4-fluorophenyl)-3-hydroxypropyl]-4-(4-hydroxyphenyl)azetidin-2-one] as the molecule, how does the “dyslipidemia (plasma total cholesterol, triglycerides, HDL-Cholesterol)” value (LDLR null mice [1]; female LDLR null mice age 3-6 months, n=20-28 per group, WD two weeks, Tg6F 0.06% by weight, Ezetimibe 10 mg/kg/day, FIG. 15) read?
Answer: significantly ameliorated dyslipidemia

Question: What about the plasma triglyceride levels (LDLR null mice [1]; statement over the experiments of Example 3 (single agents five out of five, Combined Formulation five out of five, Novel Method three out three experiments)) of the same molecule?
Answer: equally effective; also recorded: improved plasma total cholesterol and triglyceride levels

Question: What about the “plasma total cholesterol levels” value (LDLR null mice [1]; statement over the experiments of Example 3 (single agents five out of five, Combined Formulation four out of five, Novel Method three out three experiments)) of the same molecule?
Answer: equally effective; also recorded: improved plasma total cholesterol and triglyceride levels

Question: What about the “plasma HDL-cholesterol levels” value (LDLR null mice [1]; statement over the experiments of Example 3 (single agents four out of four, Combined Formulation four out of four, Novel Method two out of two experiments)) of the same molecule?
Answer: equally effective; also recorded: significantly increased the levels

Question: And the “plasma LysoPC 18:0 levels” value (LDLR null mice [2]; FIG. 16 G-H)?
Answer: failed to significantly alter plasma levels of LysoPC 18:0

Question: What about the “plasma LysoPC 18:1 levels” value (LDLR null mice [2]; FIG. 16 I-J) of the same molecule?
Answer: significantly decreased plasma levels of LysoPC 18:1

Question: And the “plasma LysoPC 20:4 levels” value (LDLR null mice [2]; FIG. 16 K-L)?
Answer: significantly reduced plasma levels of LysoPC 20:4

Question: What about the “ED50 value (median effective dose) for inhibiting the rise in plasma cholesterol levels” value (cholesterol-fed monkeys) of the same molecule?
Answer: 0.5 µg/kg/day
